What all share (assay): growth of human tumour cells (NCI), 48 h
In test [1] the test system is OVCAR-3.
The subject of test [2] is NCI-H460.
For test [3], the system named is K562.
The subject of test [4] is OVCAR-5.
Test [5] concerns CAKI-1.
The subject of test [6] is A498.
For test [7], the system named is SK-MEL-28.
Test [8] relates to TK-10.
The subject of test [9] is SNB-19.
The subject of test [10] is NCI-H522.
The test system of test [11] is NCI-H226.
For test [12], the system named is NCI/ADR-RES.
In test [13] the test system is MDA-MB-231.
Test [14] has as its system HL-60.
The test system of test [15] is COLO 205.
Test [16] relates to OVCAR-8.
Test [17] concerns U-251.
Test [18] concerns 786-0.
Test [19] has as its system SR.
Test [20] concerns A549.

The values below come from ChEMBL document CHEMBL1201862, “PubChem BioAssay data set” (2004).

SMILES strings stand for the structures.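 Cells were grown in 96-well plates and exposed to each compound for 48 hours at five concentrations; endpoints were interpolated linearly between bracketing concentrations, or set to the highest concentration if not reached. GI50: concentration for 50% inhibition of growth.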 The source made the active and inactive calls. Cut-off read from the data, not from the text of the source: active = GI50 up to about 1.1 µM and inactive = higher. Where a SMILES comes first, the peptide text is derived from it. The star is where a group is joined. Boc = CC(C)(C)OC(=O)*

Take `C[C@@]12C[C@@H](c3ccccc3O1)N1CCCSC1=N2`: the GI50 in [1], in test [2], in test [3], in [4], in test [5] and in test [6] was > 100 µM (inactive) throughout. Moreover, the GI50 in test [7], in test [8], in test [9], in test [10], in test [11] and in test [12] was > 100 µM (inactive) in each case. The GI50 in test [13], in test [14], in [15], in [16], in [17] and in [18] was > 100 µM (inactive) each time. Also, the GI50 in test [19] is > 100 µM (inactive).
In the case of `Cc1nc(SCC(=O)Nc2ccccc2)c2sc(=S)n(-c3ccccc3)c2n1`, the GI50 in [1], in test [2], in test [4], in test [5], in test [6] and in test [7] was > 10 µM (inactive) each time. For the same compound, the GI50 in [8] is > 10 µM (inactive); in test [20], > 10 µM (inactive); in test [9], 8.41 µM (inactive); in [10] it was > 10 µM (inactive); in test [11], 2.9 µM (inactive); in test [12] it was > 10 µM (inactive). For the same compound, the GI50 in test [13] was 6.18 µM (inactive); in test [14], > 10 µM (inactive); in [15] it was > 10 µM (inactive); in [16], 9.12 µM (inactive); in [17] it was 8.87 µM (inactive); in [18], 8.79 µM (inactive). In addition, the GI50 in test [19] was > 10 µM (inactive).
On to `N#CC12CC=C(c3ccccc3)N=C1NC(c1ccccc1)=CC2` (configuration not stated), for which the GI50 in test [1] was > 100 µM (inactive); in test [2], 57.5 µM (inactive); in test [3], 31.6 µM (inactive); in test [4], > 100 µM (inactive); in test [6] it was 23.2 µM (inactive); in test [7], > 100 µM (inactive). Besides, the GI50 in test [8] was > 100 µM (inactive); in [20], 54 µM (inactive); in test [9], 90.8 µM (inactive); in test [10], 46.7 µM (inactive); in test [11] it was 60.8 µM (inactive); in test [12], 53.5 µM (inactive). Moreover, the GI50 in [13] was > 100 µM (inactive); in test [14] it was 22.4 µM (inactive); in test [15], 30.8 µM (inactive); in [16], 48.2 µM (inactive); in test [17], 85.1 µM (inactive); in test [18], > 100 µM (inactive). In test [19], the GI50 was 29.9 µM (inactive).
Regarding `Cc1ccc(NC(=O)/C(Cc2cc(=O)oc3cc(O)ccc23)=N\NC(C)(C)C)cc1C`, the GI50 in test [1], in [2], in [3], in test [5], in test [6] and in test [7] was > 100 µM (inactive) each time. Besides, the GI50 in test [20], in test [9], in [11], in [12], in [13] and in test [14] was > 100 µM (inactive) each time. Also, the GI50 in test [15], in test [16], in test [17], in test [18] and in [19] was > 100 µM (inactive) each time.
Consider `[N-]=[N+]=CC(=O)C1CCN(c2ccccc2)C1=O` (configuration not stated), for which the GI50 in [1], in test [2], in [3], in test [4], in test [5] and in test [6] was > 10 µM (inactive) each time. Besides, the GI50 in test [7], in [8], in [20], in [9], in test [11] and in test [12] was > 10 µM (inactive) in each case. For the same compound, the GI50 in test [13], in test [14], in test [15], in [16], in test [17] and in test [18] was > 10 µM (inactive) each time. Besides, in test [19], the GI50 is > 10 µM (inactive).
Regarding `O=C1Oc2ccccc2C(=O)/C1=C/N1C(=O)/C(=C/c2ccc3c(c2)OCO3)SC1=S`, the GI50 is 0.405 µM (active) in test [1]; 16.8 µM (inactive) in test [2]; 16.6 µM (inactive) in [3]; 16.6 µM (inactive) in test [4]; 17.5 µM (inactive) in test [5]; 3.99 µM (inactive) in [6]. Moreover, the GI50 in test [7] is 17.3 µM (inactive); in test [20], 18.1 µM (inactive); in test [10] it was 15.8 µM (inactive); in test [11], 11.5 µM (inactive); in test [12], 18.5 µM (inactive); in [13], 25.1 µM (inactive). Also, the GI50 was 26.9 µM (inactive) in test [14]; 20.5 µM (inactive) in test [15]; 17.6 µM (inactive) in [16]; 10 µM (inactive) in [17]; 43.4 µM (inactive) in test [18]; 15.8 µM (inactive) in test [19].
Turning to `O=C(O)C1=CN(c2ccncc2)C(c2ccco2)=CC1c1ccccc1[N+](=O)[O-]` (configuration not stated), the GI50 is 7 µM (inactive) in [1]; 14.6 µM (inactive) in [2]; 2.58 µM (inactive) in test [3]; 7.13 µM (inactive) in [4]; 16.5 µM (inactive) in [5]; 13 µM (inactive) in [6]. The GI50 was 12.8 µM (inactive) in [7]; 6.17 µM (inactive) in [8]; 15.6 µM (inactive) in test [20]; 12.5 µM (inactive) in test [9]; 3.22 µM (inactive) in test [10]; 4.72 µM (inactive) in test [11]. Also, the GI50 in test [12] was 22.9 µM (inactive); in test [13], 14.6 µM (inactive); in test [14], 3.19 µM (inactive); in test [15] it was 16.6 µM (inactive); in test [16], 17.3 µM (inactive); in test [17], 6.31 µM (inactive). For the same compound, the GI50 in test [18] was 2.16 µM (inactive); in [19], 1.94 µM (inactive).
Regarding `CC(C)CCCC(C)[C@H]1CC[C@H]2n3c(nc4ccccc43)CCC[C@]12C` (some centres not stated), the GI50 in test [1] is 17.4 µM (inactive); in test [2], 15.9 µM (inactive); in test [3], 15.6 µM (inactive); in [5] it was 17.1 µM (inactive); in test [6], 13.2 µM (inactive); in [7] it was 18.6 µM (inactive). Moreover, the GI50 in test [8] was 17.4 µM (inactive); in test [20], 20.1 µM (inactive); in test [9], 19.4 µM (inactive); in [11], 15.6 µM (inactive); in test [12], 18.2 µM (inactive); in test [13], 16 µM (inactive). In addition, the GI50 is 13.6 µM (inactive) in test [14]; 11.1 µM (inactive) in test [15]; 17.1 µM (inactive) in test [16]; 19.2 µM (inactive) in test [17]; 17.5 µM (inactive) in test [18]; 15.8 µM (inactive) in test [19].
`CN(C)/C=C/c1c2c(nc3ccccc13)C(=O)c1ccccc1C2=O`: the GI50 in test [2] is 0.262 µM (active); in test [3], 0.151 µM (active); in test [4], 3.15 µM (inactive); in test [5] it was 2.06 µM (inactive); in [6] it was 3.91 µM (inactive); in test [7], 0.222 µM (active). Besides, the GI50 was 2.13 µM (inactive) in test [8]; 2.33 µM (inactive) in [20]; 1.83 µM (inactive) in test [9]; 1.16 µM (inactive) in test [10]; 1.15 µM (inactive) in test [11]; 1.71 µM (inactive) in [12]. Moreover, the GI50 in [13] is 1.55 µM (inactive); in test [14] it was 0.366 µM (active); in test [15], 1.79 µM (inactive); in [16], 1.63 µM (inactive); in [17] it was 0.991 µM (active); in test [18] it was 1.92 µM (inactive). Further, the GI50 in test [19] is 0.449 µM (active).
Take `CC(C)(C)OC(=O)NCC(=O)NCC(=O)NCC(=O)NCC(=O)O` (Boc-GGGG-OH): the GI50 in test [1], in [2], in test [3], in [4], in test [5] and in test [6] was > 100 µM (inactive) in each case. For the same compound, the GI50 in [7], in [8], in test [20], in [9], in [10] and in test [12] was > 100 µM (inactive) each time. In addition, the GI50 in test [13], in test [14], in test [15], in [16], in test [17] and in test [18] was > 100 µM (inactive) each time. Also, the GI50 in test [19] is > 100 µM (inactive).
